Experimental data: ChEMBL document CHEMBL1833824, “Effects of cyclization on stability, structure, and activity of α-conotoxin RgIA at the α9α10 nicotinic acetylcholine receptor and GABA(B) receptor” (J Med Chem, 2011)
Bridge positions count the residues as written; N and C are the ends. Square brackets hold non-standard residues; d marks the D form. Peptide text beside a SMILES is read from it. Hyp = O=C(O)[C@@H]1C[C@@H](O)CN1

Columns and labels:
[1] = Inhibition of GABA-B receptor-mediated high voltage-activated Ca2+ channel current in Wistar rat DRG neurons by whole-cell patch clamp assay; details: DRG neuron
Oocyte = assay: Inhibition of human alpha-9/rat alpha-10 nACHR expressed in Xenopus oocytes assessed as inhibition of acetylcholine-induced current by voltage clamp assay relative to RgIA; format: cell-based; details: dose or concentration not given here

**Q.** For N=C(N)NCCC[C@@H]1NC(=O)[C@H](Cc2ccc(O)cc2)NC(=O)[C@H](CCCNC(=N)N)NC(=O)[C@@H]2CSSC[C@H](NC(=O)CN)C(=O)N[C@@H](CSSC[C@@H](C(=O)O)NC1=O)C(=O)N[C@@H](CO)C(=O)N[C@@H](CC(=O)O)C(=O)N1C[C@H](O)C[C@H]1C(=O)N[C@@H](CCCNC(=N)N)C(=O)N2 (H-GCCSD[Hyp]RCRYRC-OH; disulfide 2-8, 3-12), which IC50 [1] is on record?
**A.** Its IC50 is 0.0205 µM.

**Q.** And the inhibition (Oocyte)?
**A.** The inhibition was 41%.
